{"source": "patent US20220249415A1", "about": "“COMPOSITION OF AZELAIC ACID HAVING ADIPOSE TRIGLYCERIDE HYDROLYSIS EFFECT” (Korea University Research and Business Foundation, priority 2018, published 2022)", "key": {"3T3-L1 adipocytes": {"test_system": "3T3-L1 adipocytes", "test": "Intracellular triglyceride concentration (TG assay kit) in 3T3-L1 adipocytes", "assay_type": "cell-based, mouse", "procedure": "In order to confirm whether or not azelaic acid induces triglyceride hydrolysis in adipocytes by activating a cAMP-PKA-HSL signaling pathway, the adipocytes were directly treated with azelaic acid, and concentrations of intracellular lipids were measured. […] Then, a concentration of triglycerides was measured using a TG assay kit (BioVision, California, U.S.) and a concentration of cholesterol was measured using an Amplex Red cholesterol assay kit (Invitrogen, California, U.S.)."}, "ob/ob mice": {"test_system": "ob/ob mice", "test": "Anti-obesity effect, oral administration to genetically obesity-induced ob/ob mice", "assay_type": "in vivo, mouse", "settings": "50 mg/kg oral", "procedure": "After orally administering azelaic acid to an ob/ob mouse (Samtako, Seoul, Korea) corresponding to a genetically obesity-induced mouse at a concentration of 50 mg/kg, a degree of obesity thereof was compared with that of a control group to which azelaic acid was not administered. More specifically, an increase in body weight, a feed intake amount, body fat, blood indices, blood lipid indices, a weight of liver tissue, ALT and AST corresponding to hepatotoxicity indices, and energy metabolism were analyzed. Changes in body weight in azelaic acid administration group and a control group were observed once a week for an experiment period of 6 weeks. Body fats (total fat, subcutaneous fat, and abdominal fat) of mice in the azelaic acid administration group to which azelaic acid was orally administered for 6 weeks and a control group were measured through micro CT image analysis. The subcutaneous fat was quantified for the entire site of the mouse, and the abdominal fat was calculated by quantifying an amount of abdominal fat at the 15th to 20th lumbar spine sites of the mouse. In order to evaluate an effect on mouse lipid metabolism of azelaic acid in the administration group to which azelaic acid was orally administered for 6 weeks and the control group, concentrations of blood triglycerides, adiponectin, and cholesterol were measured. Weights of the liver tissue, ALT, and AST of the mice in the azelaic acid administration group to which azelaic acid was orally administered for 6 weeks and the control group were measured."}, "HepG2 cells": {"test_system": "HepG2 cells", "test": "Treatment of human liver tissue cell line HepG2 with azelaic acid", "assay_type": "cell-based", "settings": "azelaic acid 50 μM"}, "OR2K2 [1]": {"target": "T1, OR2K2 (Homo sapiens, UniProt Q8NGT1, D270A)", "T1 construct": "expressed in transfected cells; host or cells: Hana3A", "T1 sequence (Q8NGT1 1-316 D270A)": "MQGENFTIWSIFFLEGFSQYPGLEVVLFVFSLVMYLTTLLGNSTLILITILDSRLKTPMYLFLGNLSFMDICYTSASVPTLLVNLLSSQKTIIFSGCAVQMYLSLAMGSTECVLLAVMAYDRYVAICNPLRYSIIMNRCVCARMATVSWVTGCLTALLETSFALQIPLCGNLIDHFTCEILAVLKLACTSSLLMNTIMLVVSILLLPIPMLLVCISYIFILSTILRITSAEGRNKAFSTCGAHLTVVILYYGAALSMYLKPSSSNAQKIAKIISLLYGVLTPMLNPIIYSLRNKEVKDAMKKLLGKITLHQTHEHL", "test": "Luciferase assay of OR2K2 mutants transfected into Hana3A cells", "assay_type": "cell-based", "settings": "OR2K2 D270A mutant in Hana3A cells", "text": "(§1) In order to confirm the binding site of the olfactory receptor OR2K2 protein that binds to azelaic acid, among amino acids, Y120, which is a tyrosine (Y) residue, E159, which is a glutamate (E) residue, and D270, which is an aspartate (D) residue, were predicted through in-silico modeling, and the corresponding position of the predicted amino acid residue was subjected to site-directed mutagenesis to obtain a mutant. For negative controls, Y120A, E159A, and D270A mutants in which all three amino acid residues were replaced with alanine were used. For positive controls, Y120F, E159D, and D270E mutants, including Y120F replaced with phenylalanine (F) for Y120, E159D replaced with aspartate for E159, and D270E replaced with glutamate for D270, were used.\n(§2) The cDNA clone including the sequence of each OR2K2 mutant for measuring the binding affinity of azelaic acid was transfected into Hana3A cells, and a luciferase assay was performed. […] This is deemed to be because azelaic acid binds to OR2K2 by reacting the E159 and D270 moieties of OR2K2 with both carboxyl groups of azelaic acid."}, "OR2K2 [2]": {"target": "T2, OR2K2 (Homo sapiens, UniProt Q8NGT1, E159A)", "T2 construct": "expressed in transfected cells; host or cells: Hana3A", "T2 sequence (Q8NGT1 1-316 E159A)": "T1 sequence (Q8NGT1 1-316 D270A) with E159A, A270D", "test": "Luciferase assay of OR2K2 mutants transfected into Hana3A cells", "assay_type": "cell-based", "settings": "OR2K2 E159A mutant in Hana3A cells", "text": "as §1, §2"}, "OR2K2 [3]": {"test_system": "OR2K2", "test": "Luciferase assay of OR2K2 mutants transfected into Hana3A cells", "assay_type": "cell-based, human", "settings": "OR2K2 with both D270 and E159 mutated, Hana3A cells", "text": "as §1, §2"}, "hAMSC cells": {"test_system": "hAMSC cells", "test": "qPCR of anti-obesity gene in hAMSC cells, with OR2K2 knock-down", "assay_type": "cell-based, human", "procedure": "In-vitro equivalence confirmation: HepG2 cells, which are a human liver tissue cell line, and hAMSC cells, which are a human adipocyte line, were treated with azelaic acid and the anti-obesity gene was measured through a qPCR method."}, "[4]": {"test": "Dose evaluation experiment, oral administration, body weight control", "assay_type": "in vivo", "settings": "6 mg/kg of azelaic acid, 6 weeks", "procedure": "Azelaic acid was orally administered for 6 weeks, and the body weight control effects of three doses (6, 17, 20 mg/kg) were compared. The commercially available anti-obesity drugs Xenical and Panbesy were used as positive controls. […] Similar results were also obtained when a secondary experiment was performed to confirm the results."}}, "note": "Numbering of substitutions follows the chain as printed."}
{"smiles": "O=C(O)CCCCCCCC(=O)O", "note": "[azelaic acid, nonanedioic acid]", "values": [{"measurement": "concentration of intracellular triglycerides decreased as compared to a control", "setting": "3T3-L1 adipocytes; 3T3-L1 adipocytes, 50 μM azelaic acid, 2 hours", "value": 61.5, "unit": "%"}, {"measurement": "concentration of triglycerides in the 3T3-L1 adipocytes", "setting": "3T3-L1 adipocytes; azelaic acid 25 or 50 μM", "value": "significantly and concentration-dependently decreased"}, {"measurement": "concentration of blood cholesterol", "setting": "ob/ob mice; 6 weeks", "value": "significantly decreased"}, {"measurement": "concentration of blood triglyceride", "setting": "ob/ob mice; 6 weeks", "value": "significantly decreased"}, {"measurement": "weight of the liver tissue", "setting": "ob/ob mice; 6 weeks", "value": "decreased"}, {"measurement": "body weight", "setting": "ob/ob mice; 6 weeks, on and after the first week, vs control group", "value": "significantly decreased"}, {"measurement": "ALT (hepatotoxicity index)", "setting": "ob/ob mice; 6 weeks, vs control group", "value": "no large difference"}, {"measurement": "AST (hepatotoxicity index)", "setting": "ob/ob mice; 6 weeks, vs control group", "value": "no large difference"}, {"measurement": "abdominal fat (micro CT)", "setting": "ob/ob mice; 6 weeks, vs control group", "value": "significantly decreased"}, {"measurement": "subcutaneous fat (micro CT)", "setting": "ob/ob mice; 6 weeks, vs control group", "value": "significantly decreased"}, {"measurement": "total fat (micro CT)", "setting": "ob/ob mice; 6 weeks, vs control group", "value": "significantly decreased"}, {"measurement": "feed intake amount", "setting": "ob/ob mice; final week, vs control group", "value": "no significant difference"}, {"measurement": "triglyceride concentration", "setting": "HepG2 cells; HepG2 cells (lipid-loaded)", "value": "significantly decreased"}, {"measurement": "CREB phosphorylation (p-CREB)", "setting": "HepG2 cells; HepG2 cells", "value": "increased"}, {"measurement": "cAMP-PKA signaling pathway", "setting": "HepG2 cells; HepG2 cells", "value": "activated"}, {"measurement": "expression of fatty acid oxidation-related gene PPAR-α", "setting": "HepG2 cells; HepG2 cells", "value": "increased"}, {"measurement": "fatty acid oxidation (FA oxidation)", "setting": "HepG2 cells; HepG2 cells", "value": "increased"}, {"measurement": "activity of azelaic acid (luciferase)", "setting": "OR2K2 [1]", "value": "statistically significantly decreased"}, {"measurement": "activity of azelaic acid (luciferase)", "setting": "OR2K2 [2]", "value": "statistically significantly decreased"}, {"measurement": "azelaic acid reaction (luciferase)", "setting": "OR2K2 [3]", "value": "statistically significantly reduced"}, {"measurement": "expression of a triglyceride hydrolysis gene (qPCR)", "setting": "hAMSC cells; adipocytes (hAMSC) treated with azelaic acid", "value": "increased"}, {"measurement": "effect on gene expression when the OR2K2 gene was knocked down", "setting": "hAMSC cells; human adipocyte line (hAMSC)", "value": "disappear"}, {"measurement": "body weight", "setting": "[4]", "value": "Significant body weight reduction efficacy"}]}
